Format in all cases: biochemical
Assay [1] addresses full length recombinant Pim-1 (Homo sapiens (Human), UniProt P11309). The assay is described as follows: Pim enzyme assay (HTRF, phosphorylation of biotinylated-BAD (S112) peptide), Pim-1. The following applies: Pim-1 enzyme assay; read-out: Pim_1_IC50.
Assay [2] has as its target full length recombinant Pim-2 (Homo sapiens (Human), UniProt Q9P1W9). The assay is described as follows: Pim enzyme assay (HTRF, phosphorylation of biotinylated-BAD (S112) peptide), Pim-2. To be noted: read-out: Pim2_IC50.
Assay [3] deals with full length recombinant Pim-3 (Homo sapiens (Human), UniProt Q86V86). The assay is described as follows: Pim enzyme assay (HTRF, phosphorylation of biotinylated-BAD (S112) peptide), Pim-3. The following applies: read-out: Pim3 IC50. From the text:
Pim-3 was purchased from Millipore (UK).
The phosphorylation of biotinylated-BAD (S112) peptide by full length recombinant Pim-1, Pim-2, or Pim-3 protein was detected with streptavidin:Allophycocyanin (APC) conjugate and a europium (Eu) labeled antibody directed against phosphorylated-BAD (S112). […] The fluorescence is directly proportional to the amount of phosphorylated BAD peptide present in the reaction.
A reference compound was included on each assay plate in order to validate that plate; on one plate of every assay run, two additional reference compounds were included.
The final buffer conditions were as follows: 60 mM Hepes, pH 7.0, 0.05% BSA, 2 mM DTT. Incubations were carried out at RT (22° C.) for 2 h for Pim-1, 1 h and 30 min for Pim-3, and 45 min for Pim-2. The reaction was then stopped by the addition of 3 mM EDTA, and fluorescence was measured by an HTRF® Rubystar microplate reader. For each plate, percent of control (POC) values were calculated for each well. Values for the IC50 IP were estimated using a standard 4-parameter logistic model.

Molecules are shown by their SMILES. Where two headings read alike, the source gives them in different places.

Chain of full length recombinant Pim-1 (P11309 whole entry): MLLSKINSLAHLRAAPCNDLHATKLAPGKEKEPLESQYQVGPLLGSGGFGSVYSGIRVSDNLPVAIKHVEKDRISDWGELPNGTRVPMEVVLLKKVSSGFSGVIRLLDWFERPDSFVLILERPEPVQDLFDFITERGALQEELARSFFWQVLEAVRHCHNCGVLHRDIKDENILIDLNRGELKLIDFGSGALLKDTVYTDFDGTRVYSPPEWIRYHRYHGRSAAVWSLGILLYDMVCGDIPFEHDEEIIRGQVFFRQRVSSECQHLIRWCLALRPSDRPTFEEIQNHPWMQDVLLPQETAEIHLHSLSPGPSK
Chain of full length recombinant Pim-2 (Q9P1W9 whole entry): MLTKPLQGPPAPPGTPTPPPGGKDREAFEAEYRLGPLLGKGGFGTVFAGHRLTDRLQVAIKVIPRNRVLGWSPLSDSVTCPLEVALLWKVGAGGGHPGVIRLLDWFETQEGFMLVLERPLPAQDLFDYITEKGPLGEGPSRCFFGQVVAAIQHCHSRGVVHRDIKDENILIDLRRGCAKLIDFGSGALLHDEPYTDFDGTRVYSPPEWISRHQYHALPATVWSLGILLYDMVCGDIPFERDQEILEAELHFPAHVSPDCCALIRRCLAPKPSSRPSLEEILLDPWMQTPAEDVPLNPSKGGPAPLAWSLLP

`NC(=O)c1nnc(-c2ccc3[nH]cc(-c4cccc(N5CCOCC5)n4)c3c2)s1` [Example 242, 5-(3-(6-(4-morpholinyl)-2-pyridinyl)-1H-indol-5-yl)-1,3,4-thiadiazole-2-carboxamide]: the IC50 in assay [1] was 983 nM; in assay [2] (Pim-2 enzyme assay), over 3000 nM; in assay [3] (Pim-3 enzyme assay), 351 nM.
For `Cc1ccn(-c2cnc(-c3c[nH]c4ccc(-c5nnc(N)s5)cc34)cn2)n1` [Example 197, 5-(3-(5-(3-methyl-1H-pyrazol-1-yl)-2-pyrazinyl)-1H-indol-5-yl)-1,3,4-thiadiazol-2-amine], the IC50 in assay [1] turned out to be 2270 nM; in assay [2] (Pim-2 enzyme assay) it was 2900 nM; in assay [3] (Pim-3 enzyme assay), 836 nM.
The corresponding values for `CNc1nnc(-c2ccc3[nH]cc(-c4cccc(OC)c4)c3c2)s1` [Example 226, 5-(3-(3-methoxyphenyl)-1H-indol-5-yl)-N-methyl-1,3,4-thiadiazol-2-amine] are 2450 nM, over 3000 nM and 354 nM.
The corresponding values for `Brc1nnc(-c2ccc3[nH]cc(-c4cccc(N5CCOCC5)n4)c3c2)s1` [Example 27, 4-(6-(5-(5-bromo-1,3,4-thiadiazol-2-yl)-1H-indol-3-yl)pyridin-2-yl)morpholine] are 1310 nM, over 3000 nM and 399 nM.
The corresponding values for `Nc1nnc(-c2ccc3[nH]cc(-c4nccc(C(F)(F)F)n4)c3c2)o1` [Example 96, 5-(3-(4-(trifluoromethyl)-2-pyrimidinyl)-1H-indol-5-yl)-1,3,4-oxadiazol-2-amine] are 67 nM, 31.9 nM and 12 nM.
As to `CC(=O)Nc1ccc(CNc2nnc(-c3ccc4[nH]cc(-c5ccc(F)cc5F)c4c3)s2)cc1` [Example 148, N-(4-(((5-(3-(2,4-difluorophenyl)-1H-indol-5-yl)-1,3,4-thiadiazol-2-yl)amino)methyl)phenyl)acetamide], the results for the IC50 in assay [1], in assay [2] (Pim-2 enzyme assay) and in assay [3] (Pim-3 enzyme assay) were 777 nM, over 3000 nM and 1270 nM, respectively.
For `Nc1nnc(-c2ccc3[nH]cc(-c4cnc(N5CCCC5=O)cn4)c3c2)s1` [Example 194, 1-(5-(5-(5-amino-1,3,4-thiadiazol-2-yl)-1H-indol-3-yl)-2-pyrazinyl)-2-pyrrolidinone], in that order: 945 nM, 1040 nM and 509 nM.
As to `CNc1nnc(-c2ccc3[nH]cc(-c4cccc(OC(F)(F)F)c4)c3c2)s1` [Example 225, N-methyl-5-(3-(3-(trifluoromethoxy)phenyl)-1H-indol-5-yl)-1,3,4-thiadiazol-2-amine], the IC50 in assay [1] was 2360 nM; in assay [2] (Pim-2 enzyme assay), over 3000 nM; in assay [3] (Pim-3 enzyme assay), 416 nM.
For `COc1cncc(-c2c[nH]c3ccc(-c4nnc(N)s4)cc23)c1` [Example 199, 5-(3-(5-methoxy-3-pyridinyl)-1H-indol-5-yl)-1,3,4-thiadiazol-2-amine], in that order: 268 nM, 618 nM and 165 nM.
The corresponding values for `CC(=O)Nc1cccc(CNc2nnc(-c3ccc4[nH]cc(-c5ccccc5F)c4c3)s2)c1` [Example 145, N-(3-(((5-(3-(2-fluorophenyl)-1H-indol-5-yl)-1,3,4-thiadiazol-2-yl)amino)methyl)phenyl)acetamide] are 308 nM, 2170 nM and 308 nM.
For `Nc1cncc(-c2c[nH]c3ccc(-c4nnc(N)s4)cc23)n1` [Example 210, 6-(5-(5-amino-1,3,4-thiadiazol-2-yl)-1H-indol-3-yl)-2-pyrazinamine], in that order: 142 nM, 192 nM and 28.7 nM.
Take `CNc1nnc(-c2ccc3[nH]cc(-c4cccc(C(F)(F)F)c4)c3c2)s1` [Example 224, N-methyl-5-(3-(3-(trifluoromethyl)phenyl)-1H-indol-5-yl)-1,3,4-thiadiazol-2-amine]: the IC50 in assay [1] is 1890 nM; in assay [2] (Pim-2 enzyme assay) it was over 3000 nM; in assay [3] (Pim-3 enzyme assay), 207 nM.
For `Nc1cccc(-c2c[nH]c3ccc(-c4nnc(N)s4)cc23)n1` [Example 190, 6-(5-(5-amino-1,3,4-thiadiazol-2-yl)-1H-indol-3-yl)-2-pyridinamine], in that order: 705 nM, 977 nM and 186 nM.
The corresponding values for `CCCCOc1cnc(-c2c[nH]c3ccc(-c4nnc(N)s4)cc23)cn1` [Example 193, 5-(3-(5-butoxy-2-pyrazinyl)-1H-indol-5-yl)-1,3,4-thiadiazol-2-amine] are 931 nM, 1550 nM and 392 nM.
The corresponding values for `Nc1nnc(-c2ccc3[nH]cc(-c4cnc(N5CCOCC5)cn4)c3c2)s1` [Example 192, 5-(3-(5-(4-morpholinyl)-2-pyrazinyl)-1H-indol-5-yl)-1,3,4-thiadiazol-2-amine] are 908 nM, 2400 nM and 266 nM.
Consider `CC(C)(Nc1nnc(-c2ccc3[nH]cc(-c4cncc(C5CC5)n4)c3c2)o1)c1ccccc1` [Example 50, 5-(3-(6-cyclopropylpyrazin-2-yl)-1H-indol-5-yl)-N-(2-phenylpropan-2-yl)-1,3,4-oxadiazol-2-amine], for which the IC50 in assay [1] is 57.7 nM; in assay [2] (Pim-2 enzyme assay), 302 nM; in assay [3], 14.4 nM.
As for `Nc1nnc(-c2ccc3[nH]cc(-c4cccc(C(F)(F)F)n4)c3c2)s1` [Example 182, 5-(3-(6-(trifluoromethyl)-2-pyridinyl)-1H-indol-5-yl)-1,3,4-thiadiazol-2-amine], the IC50 in assay [1] was found to be 121 nM; in assay [2] (Pim-2 enzyme assay), 135 nM; in assay [3] (Pim-3 enzyme assay), 22.5 nM.
With `c1cc(-c2nnc(-c3ccc4[nH]cc(-c5cncc(C6CC6)n5)c4c3)o2)[nH]n1` [Example 39, 2-(3-(6-Cyclopropylpyrazin-2-yl)-1H-indol-5-yl)-5-(1H-pyrazol-5-yl)-1,3,4-oxadiazole 2,2,2-trifluoroacetate], the IC50 in assay [1] turned out to be 51.4 nM; in assay [2], 158 nM; in assay [3] it was 19.8 nM.
For `Oc1nnc(-c2ccc3[nH]cc(-c4ccc(F)cc4F)c3c2)s1` [Example 26, 5-(3-(2,4-difluorophenyl)-1H-indol-5-yl)-1,3,4-thiadiazol-2-ol], the figures for the IC50 in assay [1], in assay [2] (Pim-2 enzyme assay) and in assay [3] (Pim-3 enzyme assay) were 2000 nM, over 3000 nM and 795 nM, respectively.
The corresponding values for `Nc1nnc(-c2ccc3[nH]cc(-c4cncc(Cl)n4)c3c2)o1` [Example 102, 5-(3-(6-chloro-2-pyrazinyl)-1H-indol-5-yl)-1,3,4-oxadiazol-2-amine] are 157 nM, 146 nM and 29.2 nM.
For `CNc1nnc(-c2ccc3[nH]cc(-c4cnc5ccccc5c4)c3c2)s1` [Example 217, N-methyl-5-(3-(3-quinolinyl)-1H-indol-5-yl)-1,3,4-thiadiazol-2-amine], in that order: 234 nM, 1630 nM and 181 nM.
The corresponding values for `Cc1[nH]c2ccc(CNc3nnc(-c4ccc5[nH]cc(-c6ccc(F)cc6F)c5c4)s3)cc2c1C` [Example 147, 5-(3-(2,4-difluorophenyl)-1H-indol-5-yl)-N-((2,3-dimethyl-1H-indol-5-yl)methyl)-1,3,4-thiadiazol-2-amine] are 513 nM, over 3000 nM and 634 nM.
Regarding `CNc1nnc(-c2ccc3[nH]cc(-c4ccc(F)cc4F)c3c2)s1` [Example 23, 5-(3-(2,4-difluorophenyl)-1H-indol-5-yl)-N-methyl-1,3,4-thiadiazol-2-amine], the IC50 was 423 nM in assay [1], 1550 nM in assay [2] (Pim-2 enzyme assay) and 136 nM in assay [3] (Pim-3 enzyme assay).
The corresponding values for `CC(Nc1nnc(-c2ccc3[nH]cc(-c4cnccn4)c3c2)o1)c1ccccc1` (stereo not drawn) [Example 268, N-(1-phenylethyl)-5-(3-(2-pyrazinyl)-1H-indol-5-yl)-1,3,4-oxadiazol-2-amine] are 171 nM, 559 nM and 81.2 nM.
The corresponding values for `N#Cc1cccc(-c2c[nH]c3ccc(-c4nnc(N)s4)cc23)n1` [Example 183, 6-(5-(5-amino-1,3,4-thiadiazol-2-yl)-1H-indol-3-yl)-2-pyridinecarbonitrile] are 156 nM, 174 nM and 48.2 nM.

(Values after patent publication US9321756B2, “Azole compounds as PIM inhibitors” (priority 2011, dated 2016).)
